Test results reported in paper PMC9704087, “Solid lipid nanoparticle as an effective drug delivery system of a novel curcumin derivative: formulation, release in vitro and pharmacokinetics in vivo” (Pharmaceutical Biology, 2022).

Key:
[1] = Pharmacokinetic study after intravenous injection; format: in vivo; settings: male, Sprague Dawley, rat, SD rats, 5 mg/kg intravenous, plasma, n = 5
Procedure: Sprague Dawley (SD) male rats aged 8 weeks weighing 250–300 g were provided by the Laboratory Animal Center of Southwest Medical University and were placed in a pathogen-free environment, and had free access to food and water. Studies involving animals were approved (approval number: SCXK (Chuan) 2013-17) by the Ethics Committee of Southwest Medical University.
Rats that were used for the pharmacokinetic study were fasted for more than 12 h before use and had free access to water. Rats were randomly divided into two groups (n = 5), namely, the Cur group and CUD-SLN group, Rats in both groups were injected intravenously with 5 mg/kg of corresponding drugs. Approximately, 200 µL of blood was collected using a heparin-coated syringe at 2, 5, 15 and 30 min and at 1, 2, 4, 6, 8, 12, 24, 30, 36, 48, 54, 60, 72 and 84 h after injection. Blood was centrifuged for 10 min at 3000 rpm, and plasma was obtained. Furthermore, 50 µL of acetate buffer (pH 3.5) was added to 100 μL of plasma. After vortexing for 1 min, 0.5 mL of extract solvent (methanol–ethyl acetate 10:90, v/v) was added to the mixture, the mixture was vortexed again for 3 min, followed by centrifugation for 3 min at 8000 rpm. Then, 0.5 mL of supernatant was removed and evaporated with nitrogen flow. Next, 200 μL of reconstituted solvent (acetonitrile contains 0.1% phosphoric acid) was added to the dry residue, vortexed for 4 min, sonicated for 4 min, and centrifuged for 10 min at 10,000 rpm, A total of 50 μL of the supernatant was removed for the high-performance liquid chromatography (HPLC) (1260 Infinity II, Agilent Technologies, Santa Clara, CA) and calculated with the standard curve (Cur: A = 157.21 C + 0.148, R^2=0.9991, range: (0.02, 12) μg/mL; CUD: A = 18.159 C + 0.4884, R^2=0.9998, range: (0.02, 5) μg/mL; A = 46.552 C – 179.81, R^2=0.9997, range: (5, 160) μg/mL). […] The detection wavelength was 409 nm (Guo et al. [2020]).
(§1) Evaluation of the comprehensive design experiment was performed by SPSS 17.0 software (SPSS Inc., Chicago, IL). Fitting of the release curve was performed by Origin 8.0 software. Pharmacokinetic data were processed by DAS 2.1.1 software to obtain relevant pharmacokinetic parameters. Student’s t-test for two groups and one-way ANOVA for multiple groups were employed for the data analysed. p < 0.05 was considered statistically significant.

[2] = In vitro drug release, dialysis membrane diffusion technique; format: physicochemical
Procedure: The release of CUD-SLN and free CUD in vitro was studied using a dialysis membrane diffusion technique (MWCO 8000–14,000) (He et al. [2020]). Due to the low solubility of CUD in the buffer, Tween 80 was added to satisfy the leaking conditions. A total of 500 mL of PBS buffer with 10% w/v Tween 80 (pH 7.35) was used as a release medium. Next, 2 mL of freshly prepared CUD-SLN (1 mg/mL) was transferred to the dialysis bags, and 2 mg free CUD (suspended in 2 mL 0.5% w/v CMC-Na) was transferred to dialysis bags as a control. The test bags were immersed in a release medium at 37 ± 0.5 °C and stirred at 100 rpm using a dissolution apparatus (ZRS-8G, Intelligent dissolution tester, ZRS-8G, Tianjin, China). An aliquot of the sample (1 mL) was removed from the release medium at 15 and 30 min and 1, 2, 4, 6, 8, 12, 24 and 48 h. After each sampling, the blank dissolution medium was replenished with the same temperature and volume. Removed samples were filtered through a 0.22 μm filter, the CUD content was analysed by a UV–vis spectrophotometer, and the analytical method described before. The in vitro release data of the drug were fitted with the zero-order release equation, the first-order release equation and the Higuchi equation (Ma et al. [2019]).
as §1

| Compound | AUC(0-inf) [1] [ng·h/mL] | AUC(0-t) [1] [ng·h/mL] | Cmax [1] [ng/mL] | Tmax [1] [h] | clearance ([1]; read-out: CLz (clearance) (converted)) [mL/min/kg] | MRT last ([1]; read-out: MRT0–t) [h] | MRT inf ([1]; read-out: MRT0–∞) [h] | half-life ([1]; read-out: t1/2z (half-life) (converted)) [h] | cumulative release of CUD at 48 h ([2]; PBS with 10% w/v Tween 80, pH 7.35, 37 °C, 100 rpm, n = 6) [%] | First-order equation k1 ([2]; fit of in vitro release data) | Higuchi's equation kh ([2]; fit of in vitro release data) | Zero order equation k0 ([2]; fit of in vitro release data) |
| --- | --- | --- | --- | --- | --- | --- | --- | --- | --- | --- | --- | --- |
| COc1cc(/C=C/C(=O)CC(=O)/C=C/c2ccc(O)c(OC)c2)ccc1O [Cur, Curcumin] | 4880 | 4600 | 332 | 6 | 171 | 9.53 | 10.8 | 5.6 |  |  |  |  |
| Carbonic acid 17-(1,5-dimethyl-hexyl)-10,13-dimethyl-2,3,4,7,8,9,10,11,12,13,14,15,16,17-tetradecahydro-1H-cyclopenta[a]phenanthren-3-yl ester 4-[7-(4-hydroxy-3-methoxy-phenyl)-3,5-dioxo-hepta-1,6-dienyl]-2-methoxy-phenyl ester [CUD] |  |  |  |  |  |  |  |  | 60.24 ± 5.08 | 0.2258 | 8.6574 | 1.0410 |
